The term pEC50 denotes −log10 of the EC50, conventionally taken in molar units.

Here are results for 21 molecules from patent US20240132467A1, “BENZIMIDAZOLE DERIVATIVES FOR TREATING RESPIRATORY DISEASE” (TMEM16A Limited, priority 2020, published 2024).

pEC50: −log10 of the molar value.

The target in the assay is T1, human TMEM16A (TMEM16Aabc variant) (Homo sapiens, UniProt Q5XXA6, DEL476-501).
T1 sequence (Q5XXA6 with tags, fused parts or gaps isoform Q5XXA6-5 DEL539-564): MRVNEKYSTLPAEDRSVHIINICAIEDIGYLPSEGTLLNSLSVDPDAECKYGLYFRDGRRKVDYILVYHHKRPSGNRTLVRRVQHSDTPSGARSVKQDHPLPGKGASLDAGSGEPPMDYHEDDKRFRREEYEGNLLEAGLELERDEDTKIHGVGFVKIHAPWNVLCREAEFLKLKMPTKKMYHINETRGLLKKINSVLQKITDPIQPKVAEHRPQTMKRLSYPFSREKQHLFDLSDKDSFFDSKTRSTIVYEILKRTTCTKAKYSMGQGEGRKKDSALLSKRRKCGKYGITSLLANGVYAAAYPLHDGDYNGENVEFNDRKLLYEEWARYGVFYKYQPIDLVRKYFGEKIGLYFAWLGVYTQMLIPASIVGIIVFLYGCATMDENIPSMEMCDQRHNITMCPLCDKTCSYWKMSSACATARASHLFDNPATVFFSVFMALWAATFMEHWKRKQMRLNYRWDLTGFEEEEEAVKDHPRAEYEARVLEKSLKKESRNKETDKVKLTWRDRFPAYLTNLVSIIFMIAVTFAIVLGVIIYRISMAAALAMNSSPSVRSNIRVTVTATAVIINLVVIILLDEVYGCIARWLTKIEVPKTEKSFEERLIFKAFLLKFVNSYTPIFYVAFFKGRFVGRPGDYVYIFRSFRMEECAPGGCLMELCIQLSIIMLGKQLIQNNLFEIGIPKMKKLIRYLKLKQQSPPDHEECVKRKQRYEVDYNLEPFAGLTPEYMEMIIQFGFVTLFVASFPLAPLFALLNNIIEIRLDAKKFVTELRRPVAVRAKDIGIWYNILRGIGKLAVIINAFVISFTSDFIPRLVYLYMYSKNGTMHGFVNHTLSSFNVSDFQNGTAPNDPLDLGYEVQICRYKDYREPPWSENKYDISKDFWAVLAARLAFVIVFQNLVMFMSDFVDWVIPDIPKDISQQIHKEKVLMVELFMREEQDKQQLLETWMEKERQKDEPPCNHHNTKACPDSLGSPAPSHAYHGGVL
In words: Automated whole-cell patch clamp (Qpatch) TMEM16A potentiator assay in FRT cells stably expressing human TMEM16A. The format is cell-based. The settings on record: for activation at 3.33 µM: 3.33 μM test compound, percentage increase of baseline TMEM16A current at +70 mV, intracellular calcium at EC20, read-out: % Potentiation @ 3.33 μM Avg; for pEC50: cumulative concentration response, 5 min per concentration, whole-cell patch clamp. As for the experimental part:
Automated whole-cell patch clamp assay to detect TMEM16A activity in recombinant cells Cell culture and preparation
Fisher rat thyroid (FRT) cells stably expressing human TMEM16A (TMEM16Aabc variant; Dr Luis Galietta, Insituto Giannina, Italy) were cultured in T-75 flasks in Hams F-12 media with Coon's modification (Sigma) supplemented with 10% (v/v) foetal bovine serum, penicillin-streptomycin (10,000 U/mL/10000 μg/mL), G-418 (750μg/mL), L-glutamine (2 mM) and sodium bicarbonate solution (7.5% v/v). At —90% confluence cells were harvested for experiments by detachment with a 2:1 (v/v) mixture of Detachin (BMS Biotechnology) and 0.25% (w/v) trypsin-EDTA. Cells were diluted to a density of 3.5-4.5×10^6 cells/mL with media consisting of CHO-S-SFM II (Sigma), 25 mM HEPES (Sigma) and Soy bean trypsin inhibitor (Sigma).
Whole-Cell Patch Clamp Recording
FRT-TMEM16A cells were whole-cell patch clamped using an automated planar patch clamp system (Qpatch, Sophion). Briefly, once high resistance (GOhm) seals were established between the cells and the planar recording array the patch was ruptured using suction pulses to establish the whole-cell recording configuration of the patch clamp technique. The assay employed the following solutions (all reagents Sigma):
Intracellular solution (mM): N-methyl-D-glucamine 130, CaCl2 18.2, MgCl2 1, HEPES 10, EGTA 10, BAPTA 20, Mg-ATP 2, pH 7.25, 325mOsm with sucrose.
Extracellular solution (mM): N-methyl-D-glucamine 130, CaCl2 2, MgCl2 1, HEPES 10, pH 7.3, 320 mOsm with sucrose.
The intracellular solution buffers intracellular calcium at levels required to give —20% activation of the maximal TMEM16A mediated current (EC20 for calcium ions). Cells were voltage clamped at a holding potential of -70mV and a combined voltage step (to +70 mV)/ramp (−90 my to +90 mV) was applied at 0.05 Hz. After a period of current stabilisation test compounds, solubilised in 100% (v/v) DMSO and subsequently diluted into extracellular solution, were applied to generate a cumulative concentration response curve. Each concentration of test compound was incubated for 5 minutes before addition of the next concentration. After the final concentration was tested a supramaximal concentration of either a known active positive modulator or the TMEM16A inhibitor, CaCCinhA01 (Del La Fuente et al, 2008) was added to define the upper and lower limits of the assay.
Compound activity was quantified by measuring the increase in current upon compound addition and expressing this as a percentage increase of baseline TMEM16A current level. Percentage increases in current were determined for each concentration and the data plotted as a function of concentration using either the Qpatch software or Graphpad Prism v6.05 providing the concentration which gave 50% of its maximal effect (EC50) and maximum efficacy (percentage of baseline increase).
In FIG. 1, IBL equals baseline current, km equals the peak current during test compound concentration 1 incubation period and so on.
Peak TMEM16A current at +70mV was plotted as a function of time over the assay period. Baseline current (IBL) was measured after a period of stabilisation. The increase in current for each compound addition was determined by taking the peak current during the incubation period and subtracting the current from the previous recording period and then expressing this as a percentage of the baseline current. For test compound concentration 1 in FIG. 1 this is:
For each additional concentration tested the increase in current was determined by subtracting the current from the previous incubation period and normalising the baseline value—for test concentration 2 in FIG. 1 this is:
The values for each test concentration were plotted as a cumulative function of concentration e.g. for test concentration two this would be the sum of the peak changes measured during concentration one plus concentration two.

Regarding `O=C(CC1CCCCC1)Nc1ccc2[nH]c(Cc3ccccc3)nc2c1` [Example 1.1, N-(2-Benzyl-1H-benzimidazol-5-yl)-2-cyclohexyl-acetamide], the activation at 3.33 µM amounted to 127% and the pEC50 is 6.60.

With `O=C(NCC1CCCCC1)c1ccc2[nH]c(Cc3ccccc3)nc2c1` [Example 1.2, 2-Benzyl-N-(cyclohexylmethyl)-1H-benzimidazole-5-carboxamide], the activation at 3.33 µM worked out at 111% and the pEC50 is 6.65.

As to `O=C(NCC12CC3CC(CC(C3)C1)C2)c1ccc2[nH]c(Cc3ccccc3)nc2c1` [Example 1.2.1, N-(1-Adamantylmethyl)-2-benzyl-1H-benzimidazole-5-carboxamide], the activation at 3.33 µM worked out at 146% and the pEC50 was 6.36.

Consider `CC1(CNC(=O)c2ccc3[nH]c(Cc4ccccc4)nc3c2)CCCC1` [Example 1.2.2, 2-Benzyl-N-I(1-methylcyclopentyl)methylj-1H-benzimidazole-5-carboxamide], for which the activation at 3.33 µM was found to be 144% and the negative-log EC50 (pEC50) was 6.69.

For `C[C@@H](NC(=O)c1ccc2[nH]c(Cc3ccccc3)nc2c1)C1CCCCC1` [Example 1.2.3, 2-Benzyl-N-[(1R)-1-cyclohexylethyl]-1H-benzimidazole-5-carboxamide], the activation at 3.33 µM was found to be 153% and the pEC50 was 6.10.

Take `CCC(C)(C)c1nc2ccc(C(=O)NCC3CCCCCC3)cc2[nH]1` [Example 1.3, N-(Cycloheptylmethyl)-2-(1,1-dimethylpropyl)-3H-benzimidazole-5-carboxamide]: the activation at 3.33 µM is 78.5% and the pEC50 is 6.25.

Turning to `O=C(NCC1CCCCCC1)c1ccc2[nH]c(CC3(O)CCCCC3)nc2c1` [Example 1.3.1, N-(Cycloheptylmethyl)-2-[(1-hydroxycyclohexyl)methyl]-1H-benzimidazole-5-carboxamide], the activation at 3.33 µM was found to be 135% and the negative logarithm of the EC50 (pEC50) was 6.37.

Take `O=C(NCC1CCCCCC1)c1ccc2[nH]c(C(CO)c3ccccc3)nc2c1` (stereo not drawn) [Example 1.3.2, N-(Cycloheptylmethyl)-2-(2-hydroxy-1-phenyl-ethyl)-1H-benzimidazole-5-carboxamide]: the activation at 3.33 µM was found to be 92.9% and the negative logarithm of the EC50 (pEC50) was 6.24.

Consider `O=C(NCC1CCCCC1)c1ccc2nc(Cc3cccc(O)c3)[nH]c2c1` [Example 1.4, N-(Cyclohexylmethyl)-2-[(3-hydroxyphenyl)methyl]-3H-benzimidazole-5-carboxamide], for which the activation at 3.33 µM stood at 81.3% and the pEC50 is 6.42.

As to `O=C(CC12CC3CC(CC(C3)C1)C2)Nc1ccc2[nH]c(Cc3cccc(O)c3)nc2c1` [Example 1.5, 2-(1-Adamantyl)-N-12-[(3-hydroxyphenyl)methyl]-1H-benzimidazol-5-yljacetamide], the activation at 3.33 µM is 162% and the pEC50 was 5.96.

With `CC1(CC(=O)Nc2ccc3[nH]c(Cc4cccc(O)c4)nc3c2)CCCCC1` [Example 1.5.1, N-[2-[(3-hydroxyphenyl)methyl]-1H-benzimidazol-5-yl]-2-(1-methylcyclohexyl) acetamide], the activation at 3.33 µM is 105% and the pEC50 is 6.65.

Regarding `O=C(CC1CCCCCC1)Nc1ccc2[nH]c(Cc3cccc(O)c3)nc2c1` [Example 1.5.2, 2-Cycloheptyl-N-[2-[(3-hydroxyphenyl)methyl]-1H-benzimidazol-5-yl]acetamide], the activation at 3.33 µM is 136% and the pEC50 is 6.64.

For the molecule `O=C(CC1CCCCC1)Nc1ccc2[nH]c(Cc3cccc(O)c3)nc2c1` [Example 1.5.3, 2-Cyclohexyl-N-12-[(3-hydroxyphenyl)methyl]-1H-benzimidazol-5-yljacetamide], the activation at 3.33 µM was determined as 93.1% and the pEC50 was 6.25.

`O=C(CC12CC3CC(CC(C3)C1)C2)Nc1ccc2[nH]c(Cc3ccccc3)nc2c1` [Example 1.5.4, 2-(1-Adamantyl)-N-(2-benzyl-1H-benzimidazol-5-yl)acetamide]: the activation at 3.33 µM amounted to 219% and the pEC50 was 6.08.

In the case of `O=C(CC1(O)C2CC3CC(C2)CC1C3)Nc1ccc2[nH]c(Cc3ccccc3)nc2c1` (stereo not drawn) [Example 1.6], the activation at 3.33 µM amounted to 83.9% and the pEC50 was 6.64.

As to `COc1cccc(Cc2nc3cc(NC(=O)CC4C5CC6CC(C5)CC4C6)ccc3[nH]2)c1` (stereo not drawn) [Example 1.7, 2-(2-Adamantyl)-N-12-[(3-methoxyphenyl)methyl]-1H-benzimidazol-5-yljacetamide], the activation at 3.33 µM was found to be 136% and the negative-log EC50 (pEC50) is 6.23.

As for `C[C@@H](c1ccccc1)c1nc2cc(NC(=O)CC3C4CC5CC(C4)CC3C5)ccc2[nH]1` (stereo partly drawn) [Example 1.7.1, 2-(2-Adamantyl)-N[2-[(1 S)-1-phenylethyl]-1H-benzimidazol-5-yl]acetamide], the activation at 3.33 µM amounted to 157% and the pEC50 is 6.56.

`C[C@H](c1ccccc1)c1nc2cc(NC(=O)CC3C4CC5CC(C4)CC3C5)ccc2[nH]1` (stereo partly drawn) [Example 1.7.2, 2-(2-Adamantyl)-N[2-[(1R)-1-phenylethyl]-1H-benzimidazol-5-yl]acetamide]: the activation at 3.33 µM stood at 143% and the pEC50 is 6.53.

Take `CC(C)(C)OC(=O)NCc1nc2cc(NC(=O)CC34CC5CC(CC(C5)C3)C4)ccc2[nH]1` [Example 1.7.3, tert-Butyl N-[[5-[[2-(1-adamantyl)acetyl]amino]-1H-benzimidazol-2-yl]methyl]carbamate]: the activation at 3.33 µM worked out at 114% and the pEC50 is 5.95.

Take `COc1ncccc1Cc1nc2cc(NC(=O)CC34CC5CC(CC(C5)C3)C4)ccc2[nH]1` [Example 1.7.4, 2-(1-Adamantyl)-N-12-[(2-methoxy-3-pyridyl)methyl]-1H-benzimidazol-5-yljacetamide]: the activation at 3.33 µM was 148% and the pEC50 was 5.88.

As for `O=C(CC1C2CC3CC(C2)CC1C3)Nc1ccc2[nH]c(Cc3cccc(O)c3)nc2c1` (stereo not drawn) [Example 1.8, 2-(2-Adamantyl)-N-12-[(3-hydroxyphenyl)methyl]-1H-benzimidazol-5-yljacetamide], the activation at 3.33 µM is 126% and the pEC50 is 6.59.
